Laboratory results from ChEMBL document CHEMBL3885881, “DrugMatrix”.

Species on record: Rattus norvegicus
Assay: DrugMatrix - Regimen: Daily Repeat
Type: toxicity, organism-based, Sprague-Dawley
Parameters: regimen Daily Repeat, gender Male, age 6-8 weeks
Conditions: in vivo, po, 75 mg/kg, route oral GAVAGE, dose level High, vehicle .5 % CMC; for ABSOLUTE BASOPHIL / ABSOLUTE EOSINOPHIL / ABSOLUTE LYMPHOCYTE / ABSOLUTE MONOCYTE / ABSOLUTE SEGMENTED NEUTROPHIL / BASOPHIL / EOSINOPHIL / ERYTHROCYTE COUNT / HEMATOCRIT / HEMOGLOBIN / LEUKOCYTE COUNT / LYMPHOCYTE / MEAN CORPUSCULAR HEMOGLOBIN / MEAN CORPUSCULAR HEMOGLOBIN CONCENTRATION / MEAN CORPUSCULAR VOLUME / MONOCYTE / NEUTROPHIL / NUCLEATED RED BLOOD CELLS / PLATELET COUNT: tissue Blood
[1] = 72 h, tissue Plasma, time 3 day
[2] = 120 h, tissue Plasma, time 5 day

Nc1ccc(Cl)cc1 [4-CHLOROANILINE]
ABSOLUTE BASOPHIL (72 h, time 3 day): 0 CELLS/uL | ABSOLUTE EOSINOPHIL (72 h, time 3 day): 340 CELLS/uL | ABSOLUTE LYMPHOCYTE (72 h, time 3 day): 18564 CELLS/uL | ABSOLUTE MONOCYTE (72 h, time 3 day): 396 CELLS/uL | ABSOLUTE SEGMENTED NEUTROPHIL (72 h, time 3 day): 3900 CELLS/uL | BASOPHIL (72 h, time 3 day): 0% | EOSINOPHIL (72 h, time 3 day): 1.67% | ERYTHROCYTE COUNT (72 h, time 3 day): 5.42 x10E6/uL | HEMATOCRIT (72 h, time 3 day): 35.1% | HEMOGLOBIN (72 h, time 3 day): 13.57 G/DL | LEUKOCYTE COUNT (72 h, time 3 day): 27.87 x10E3/uL | LYMPHOCYTE (72 h, time 3 day): 79.33% | MEAN CORPUSCULAR HEMOGLOBIN (72 h, time 3 day): 25.13 pg | MEAN CORPUSCULAR HEMOGLOBIN CONCENTRATION (72 h, time 3 day): 38.77 G/DL | MEAN CORPUSCULAR VOLUME (72 h, time 3 day): 64.77 fL | MONOCYTE (72 h, time 3 day): 1.67% | NEUTROPHIL (72 h, time 3 day): 17.33% | NUCLEATED RED BLOOD CELLS (72 h, time 3 day): 1 /100WBC | PLATELET COUNT (72 h, time 3 day): 1129 x10E3/uL | ALANINE AMINOTRANSFERASE [1]: 48.33 u/L | ALBUMIN [1]: 4.23 G/DL | ALKALINE PHOSPHATASE [1]: 297 u/L | ASPARTATE AMINOTRANSFERASE [1]: 88.67 u/L | BLOOD UREA NITROGEN [1]: 14.67 mg/dL | CARBON DIOXIDE [1]: 26.67 mmol/L | CHLORIDE [1]: 104 MEQ/L | CHOLESTEROL [1]: 52.67 mg/dL | CREATININE [1]: 0.27 mg/dL | GLUCOSE [1]: 226.33 mg/dL | LACTATE DEHYDROGENASE [1]: 200 u/L | LIPASE [1]: 9.67 u/L | PHOSPHORUS [1]: 13.43 mg/dL | POTASSIUM [1]: 6.55 MEQ/L | SODIUM [1]: 147 MEQ/L | TOTAL BILIRUBIN [1]: 0.23 mg/dL | TOTAL PROTEIN [1]: 6.3 G/DL | URIC ACID [1]: 2.03 mg/dL | ABSOLUTE BASOPHIL (120 h, time 5 day): 0 CELLS/uL | ABSOLUTE EOSINOPHIL (120 h, time 5 day): 666.67 CELLS/uL | ABSOLUTE LYMPHOCYTE (120 h, time 5 day): 19854.67 CELLS/uL | ABSOLUTE MONOCYTE (120 h, time 5 day): 430.67 CELLS/uL | ABSOLUTE SEGMENTED NEUTROPHIL (120 h, time 5 day): 5848 CELLS/uL | BASOPHIL (120 h, time 5 day): 0% | EOSINOPHIL (120 h, time 5 day): 2.33% | ERYTHROCYTE COUNT (120 h, time 5 day): 4.48 x10E6/uL | HEMATOCRIT (120 h, time 5 day): 32.57% | HEMOGLOBIN (120 h, time 5 day): 13.73 G/DL | LEUKOCYTE COUNT (120 h, time 5 day): 26.8 x10E3/uL | LYMPHOCYTE (120 h, time 5 day): 74% | MEAN CORPUSCULAR HEMOGLOBIN (120 h, time 5 day): 30.77 pg | MEAN CORPUSCULAR HEMOGLOBIN CONCENTRATION (120 h, time 5 day): 42.2 G/DL | MEAN CORPUSCULAR VOLUME (120 h, time 5 day): 72.87 fL | MONOCYTE (120 h, time 5 day): 1.67% | NEUTROPHIL (120 h, time 5 day): 22% | NUCLEATED RED BLOOD CELLS (120 h, time 5 day): 1.33 /100WBC | PLATELET COUNT (120 h, time 5 day): 1147 x10E3/uL | ALANINE AMINOTRANSFERASE [2]: 61.33 u/L | ALBUMIN [2]: 4.23 G/DL | ALKALINE PHOSPHATASE [2]: 360.33 u/L | ASPARTATE AMINOTRANSFERASE [2]: 93.67 u/L | BLOOD UREA NITROGEN [2]: 13 mg/dL | CARBON DIOXIDE [2]: 31.33 mmol/L | CHLORIDE [2]: 102.33 MEQ/L | CHOLESTEROL [2]: 64.67 mg/dL | CREATININE [2]: 0.2 mg/dL | GLUCOSE [2]: 157.33 mg/dL | LACTATE DEHYDROGENASE [2]: 180.67 u/L | LIPASE [2]: 9 u/L | PHOSPHORUS [2]: 11.23 mg/dL | POTASSIUM [2]: 6.43 MEQ/L | SODIUM [2]: 148.33 MEQ/L | TOTAL BILIRUBIN [2]: 0.43 mg/dL | TOTAL PROTEIN [2]: 6.23 G/DL
